ChEMBL document CHEMBL4825674, “Phorbol Esters from the Latex of Euphorbia umbellata: Bioguided Isolation of Highly Potent HIV-1 Latency Interrupters in Virus Reservoir Cells” (2021)

Columns and labels:
[1] = system: Human immunodeficiency virus 1; test: Reactivation of HIV-1 latency infected in GFP-fused J-Lat 10.6 cells assessed as HIV-1 latency reactivation in reservoir cells at 2.24 uM incubated for 24 hrs flow cytometry analysis; assay type: functional
MT4 = test: Cytotoxicity against human MT4 cells assessed as cell viability at 1 ug/ml incubated for 24 hrs by CellTiter Blue viability assay; assay type: functional, cell-based; conditions: dose 1.0 µg/ml
[2] = Reduction in CD4 expression in human MT4 cells at 1.94 uM incubated for 24 hrs by flow cytometry analysis; assay type: functional; parameters: scale not given: the % may be the effect or the level left
[3] = system: Human immunodeficiency virus 1; test: Reactivation of HIV-1 latency infected in GFP-fused J-Lat 10.6 cells assessed as HIV-1 latency reactivation in reservoir cells at 0.097 to 9.7 uM incubated for 24 hrs flow cytometry analysis; assay type: functional; conditions: dose 0.097-9.7 µM
[4] = Reduction in CD4 expression in human MT4 cells at 1.77 uM incubated for 24 hrs by flow cytometry analysis; assay type: functional; parameters: scale not given: the % may be the effect or the level left
[5] = Reduction in CD4 expression in human MT4 cells at 1.82 uM incubated for 24 hrs by flow cytometry analysis; assay type: functional; parameters: scale not given: the % may be the effect or the level left
[6] = system: Human immunodeficiency virus 1; test: Reactivation of HIV-1 latency infected in GFP-fused J-Lat 10.6 cells assessed as HIV-1 latency reactivation in reservoir cells at 0.088 to 8.85 uM incubated for 24 hrs flow cytometry analysis; assay type: functional; conditions: dose 0.088-8.85 µM

Row | SMILES | Activity [1] [%] | Activity (MT4) | Activity [2] [%] | Activity [3] [%] | Activity [4] [%] | Activity [5] [%] | Activity [6] [%]
1 | CCCCCC(=O)O[C@H]1C(C)=C[C@]23C(=O)[C@@H](C=C(CO)[C@@H](O)[C@]12O)[C@H]1[C@@H](C[C@H]3C)C1(C)C | 70 | – | – | – | – | – | –
2 | C/C=C(/C)C(=O)O[C@@H]1[C@@H](C)[C@]2(O)[C@@H]3C=C(C)C(=O)[C@@]3(O)[C@H](O)C(C)=C[C@H]2[C@H]2C(C)(C)[C@]12OC(=O)C(C)C | – | Not toxic | 40 | 70 | 40 | 40 | –
3 | C/C=C(/C)C(=O)O[C@@H]1[C@@H](C)[C@]2(O)[C@@H]3C=C(C)C(=O)[C@@]3(O)[C@H](O)C(C)=C[C@H]2[C@H]2C(C)(C)[C@]12OC(=O)Cc1ccccc1 | – | Not toxic | – | – | – | – | 70
